Results from patent publication US7067112B2, “Cephaibols: novel antiparasitics from Acremonium tubakii, process for their production, and use thereof” (Sanofi-Aventis Deutschland GmbH, priority 1999, dated 2006).
≈ marks a conversion by molar mass, not a printed value. Square brackets hold non-standard residues; d marks the D form. Peptide text beside a SMILES is read from it. Hyp = O=C(O)[CH]1C[CH](O)CN1; Phe(ol) = N[CH](CO)Cc1ccccc1; Iva = CC[C](C)(N)C(=O)O; Aib = CC(C)(N)C(=O)O

Legend:
[1] = stability (physicochemical properties); settings: in neutral, mildly acidic and mildly alkaline medium
Description: (§1) The physicochemical and spectroscopic properties of the cephaibols according to the invention can be summarized as follows: […]

[2] = tested on: Pasteurella haemolytica P 53; test: minimal inhibitory concentration (MIC); type: cell-based
[3] = tested on: Pseudomonas aeruginosa 77/2; test: minimal inhibitory concentration (MIC); type: cell-based
[4] = tested on: Pseudomonas aeruginosa 1771 M; test: minimal inhibitory concentration (MIC); type: cell-based
[5] = tested on: Enterococcus hirae ATCC 10541; test: minimal inhibitory concentration (MIC); type: cell-based
[6] = tested on: cat flea=Ctenocephalides felis; test: flea larval test (action on ectoparasites); type: in vivo; settings: depending on the dose (2000, 1000, 500, 250 ppm etc. in blood meal), in comparison with the solvent control
Method: The action against ectoparasites was checked in the flea larval test (cat flea=Ctenocephalides felis). 5 mg of cephaibol A were dissolved in 0.5 ml of acetone and mixed into 500 mg of blood meal (defibrinated sheep blood). After the solvent had evaporated, 2 g of quartz sand were mixed with medicated blood meal such that preparation concentrations of 2000, 1000, 500, 250 ppm etc. resulted. 15 flea eggs per medicated sample or solvent control were added to the mixture of medicated blood meal and quartz sand, which was then incubated at 37° C. and high atmospheric humidity. The larval development, pupation and development to the adult stage were checked at an interval of 3–5 days and the mortality rates were documented.

[7] = tested on: Bordetella bronchiseptica 10; test: minimal inhibitory concentration (MIC); type: cell-based
[8] = tested on: Bordetella bronchiseptica 9; test: minimal inhibitory concentration (MIC); type: cell-based
[9] = tested on: Streptococcus pyogenes 77 A; test: minimal inhibitory concentration (MIC); type: cell-based
[10] = tested on: Pasteurella haemolytica 7; test: minimal inhibitory concentration (MIC); type: cell-based
[11] = tested on: Enterobacter cloacae P 99; test: minimal inhibitory concentration (MIC); type: cell-based
[12] = tested on: Klebsiella oxytoca 1522 E; test: minimal inhibitory concentration (MIC); type: cell-based
[13] = tested on: Streptococcus pyogenes 308 A; test: minimal inhibitory concentration (MIC); type: cell-based
[14] = tested on: larvae of the chicken roundworm Ascaridia galli; test: larval development test (in vitro) for anthelmintic action; type: cell-based; settings: A. galli L2 larvae, 5 days medication
Method: For the testing of the action of the cephaibols on helminths, an in vitro test (larval development test) was carried out with larvae of the chicken roundworm Ascaridia galli. Embryonate eggs of A. galli were surface-sterilized by treatment with 5% strength sodium hypochlorite solution and, after removal of this solution, mechanically opened by means of rotating glass beads (5 mm). The hatched L2 larvae were enriched via larval enrichment processes, taken up in nutrient medium and incubated at 41° C. and 10% CO2.
48 hours after hatching, the larvae were incubated (41° C., 10% CO2) in microtiter plates (96 well) for 5 days with medicated medium (200 μl) in the concentrations 200, 100, 50 . . . 0.1 μg/ml. During the 5-day incubation period, motility, morphology, and vitality were checked microscopically and documented on a daily basis. After medication, the larval culture was incubated for 48 hours with Neutral Red in a concentration of 0.16%; after removal of the Neutral Red by change of medium, the enrichment of the vital dye in the intestine of the larvae was assessed as an index for active food intake and thus as proof of the vitality. The medication of the larvae with cephaibol A in the concentrations 200, 100, 50, and 25 μg/ml led to 100% mortality; at a concentration of 12.5 μg/ml and 6.25 μg/ml, the mortality was 92% and 20% respectively.

[15] = tested on: Bordetella bronchiseptica ATCC 4617; test: minimal inhibitory concentration (MIC); type: cell-based
[16] = tested on: Pseudomonas aeruginosa 1771; test: minimal inhibitory concentration (MIC); type: cell-based
[17] = tested on: Klebsiella aerogenes 1082 E; test: minimal inhibitory concentration (MIC); type: cell-based
[18] = tested on: Enterobacter cloacae 1321 E; test: minimal inhibitory concentration (MIC); type: cell-based
[19] = tested on: Staphylococcus aureus 285; test: minimal inhibitory concentration (MIC); type: cell-based
[20] = tested on: Pseudomonas aeruginosa ATCC 9027; test: minimal inhibitory concentration (MIC); type: cell-based
Escherichia coli DC 2 = test: minimal inhibitory concentration (MIC); type: cell-based
Escherichia coli DC 0 = test: minimal inhibitory concentration (MIC); type: cell-based
[21] = tested on: Pasteurella multocida 3;tox.pos.; test: minimal inhibitory concentration (MIC); type: cell-based
[22] = tested on: Enterococcus faecalis ATCC 29212; test: minimal inhibitory concentration (MIC); type: cell-based
Escherichia coli TEM = test: minimal inhibitory concentration (MIC); type: cell-based
Escherichia coli 1507 E = test: minimal inhibitory concentration (MIC); type: cell-based
[23] = tested on: Escherichia coli ATCC 25922; test: minimal inhibitory concentration (MIC); type: cell-based
[24] = tested on: Pasteurella multocida P 48; test: minimal inhibitory concentration (MIC); type: cell-based
Mycoplasma gallisepticum = test: minimal inhibitory concentration (MIC); type: cell-based
[25] = tested on: Pseudomonas aeruginosa ATCC 27853; test: minimal inhibitory concentration (MIC); type: cell-based
[26] = solubility (physicochemical properties)
Description: as §1

[27] = tested on: Staphylococcus aureus ATCC 29213; test: minimal inhibitory concentration (MIC); type: cell-based

## CCC(C)(NC(=O)C(CC(C)C)NC(=O)CNC(=O)C(C)(C)NC(=O)C(C)(C)NC(=O)C(C)(C)NC(=O)C(C)(C)NC(=O)C(Cc1ccccc1)NC(C)=O)C(=O)NC(C)(C)C(=O)N1CC(O)CC1C(=O)NC(CCC(N)=O)C(=O)NC(C)(CC)C(=O)N1CC(O)CC1C(=O)NC(C)(C)C(=O)N1CCCC1C(=O)NC(CO)Cc1ccccc1 (stereo not drawn) [Cephaibol A, AcPhe-Aib-Aib-Aib-Aib-Gly-Leu-Iva-Aib-Hyp-Gln-Iva-Hyp-Aib-Pro-Phe-ol] (Ac-F[Aib][Aib][Aib][Aib]GL[Iva][Aib][Hyp]Q[Iva][Hyp][Aib]P[Phe(ol)]; configuration not given here)
[1]
  stability: stable
[2]
  MIC: >128 µg/mL
[3]
  MIC: >128 µg/mL
[4]
  MIC: >128 µg/mL
[5]
  MIC: 64 µg/mL (≈ 38.3 µM)
[6]
  larvicidal action: > 90%
[7]
  MIC: >128 µg/mL
[8]
  MIC: >128 µg/mL
[9]
  MIC: >128 µg/mL
Mycoplasma mycoides LC
  MIC: 128 µg/mL (≈ 76.6 µM)
[10]
  MIC: >128 µg/mL
[11]
  MIC: >128 µg/mL
Mycoplasma mycoides L
  MIC: 64 µg/mL (≈ 38.3 µM)
[12]
  MIC: >128 µg/mL
[13]
  MIC: 32 µg/mL (≈ 19.2 µM)
[14]; 6.25 μg/ml
  mortality: 20%
[14]; 12.5 μg/ml
  mortality: 92%
[14]; 25 μg/ml
  mortality: 100%
[14]; 50 μg/ml
  mortality: 100%
[14]; 100 μg/ml
  mortality: 100%
[14]; 200 μg/ml
  mortality: 100%
[15]
  MIC: >128 µg/mL
[16]
  MIC: >128 µg/mL
[17]
  MIC: >128 µg/mL
[18]
  MIC: >128 µg/mL
[19]
  MIC: 8 µg/mL (≈ 4.79 µM)
[20]
  MIC: >128 µg/mL
Escherichia coli DC 2
  MIC: >128 µg/mL
Escherichia coli DC 0
  MIC: >128 µg/mL
[21]
  MIC: >128 µg/mL
[22]
  MIC: 64 µg/mL (≈ 38.3 µM)
Escherichia coli TEM
  MIC: >128 µg/mL
Escherichia coli 1507 E
  MIC: >128 µg/mL
[23]
  MIC: >128 µg/mL
[24]
  MIC: >128 µg/mL
Mycoplasma gallisepticum
  MIC: 64 µg/mL (≈ 38.3 µM)
[25]
  MIC: >128 µg/mL
[26]; polar organic solvents
  solubility in polar organic solvents: soluble
[26]; water
  solubility in water: only slightly soluble
[27]
  MIC: 16 µg/mL (≈ 9.58 µM)
